# Experimental data from patent US9149536B2, “Conjugated antimicrobial agents” (priority 2009, dated 2015).
# Read-outs that look alike come from different tables or passages of the source.
# Legend:
# [1] = tested on: E. coli R477-100; test: MIC, double-microdilution, E. coli R477-100; assay type: cell-based, Escherichia coli; details: Table 4
# [2] = tested on: E. coli ATCC 25922; test: MIC, double-microdilution, E. coli ATCC 25922; assay type: cell-based, Escherichia coli; details: Table 4
# [3] = tested on: E. coli AG100B; test: MIC, double-microdilution, E. coli AG100B; assay type: cell-based, Escherichia coli; details: Table 4; kanamycin resistant, APH(3′)-I
# Description: AG100B and AG100A are two kanamycin resistant Escherichia coli strains expressing APH(3′)-I aminoglycoside resistance enzyme.
# [4] = tested on: E. coli AG100A; test: MIC, double-microdilution, E. coli AG100A; assay type: cell-based, Escherichia coli; details: Table 4; kanamycin resistant, APH(3′)-I
# [5] = tested on: B. subtilis ATCC 6633; test: MIC, double-microdilution, B. subtilis ATCC 6633; assay type: cell-based; details: Table 4
# [6] = tested on: MRSA ATCC 43300; test: microbe, parasite or virus in culture; assay type: cell-based, S. aureus; details: Table 4
# [7] = tested on: E. coli BL21/pETSACG1; test: microbe, parasite or virus in culture; assay type: cell-based; details: for MIC ratio BL21/pETSACG1 to BL21: MIC resistant strain divided by MIC background strain; for MIC BL21/pETSACG1: expressed enzyme APH(3′)-IIIa
# Protocol: (§1) For this purpose, exemplary conjugates, according to some embodiments of the present invention, were tested against five isogenic E. coli strains. E. coli (pSF815) and E. coli (pET9d) are laboratory resistant strains derived by transformation of E. coli XL1 blue (background strain) with the pSF815 and pET9d plasmids, respectively. […] The last two isogenic strains used were E. coli BL21 (background strain) and E. coli (pETSACG1). […] These three enzymes are among the most prevalent modes of resistance found in aminoglycosides resistance strains.
# (§2) The MIC ratios were calculated by dividing the MIC value against resistant strain to that against the respective background strain.
# [8] = tested on: E. coli BL21; test: microbe, parasite or virus in culture; assay type: cell-based; details: background strain
# Protocol: as §1, §2
# [9] = tested on: E. coli XL1 blue/pET9d; test: microbe, parasite or virus in culture; assay type: cell-based; details: for MIC ratio XL1 blue/pET9d to XL1 blue: MIC resistant strain divided by MIC background strain; for MIC XL1 blue/pET9d: expressed enzyme APH(3′)-Ia
# Protocol: as §1, §2
# [10] = tested on: E. coli XL1 blue/pSF815; test: microbe, parasite or virus in culture; assay type: cell-based; details: for MIC ratio XL1 blue/pSF815 to XL1 blue: MIC resistant strain divided by MIC background strain; for MIC XL1 blue/pSF815: expressed enzyme AAC(6′)-APH(2″)
# Protocol: as §1, §2
# [11] = tested on: E. coli XL1 blue; test: microbe, parasite or virus in culture; assay type: cell-based; details: background strain
# Protocol: as §1, §2
# [12] = biological target: T1, APH(3′)-IIIa enzyme (Enterococcus faecalis, UniProt P0A3Y5); assay type: biochemical
# T1 construct: made in house; host or cells: E. coli BL21 carrying pETSACG1 (inferred)
# [13] = compound as substrate of APH(3′)-IIIa
# T1 sequence (P0A3Y5 whole entry): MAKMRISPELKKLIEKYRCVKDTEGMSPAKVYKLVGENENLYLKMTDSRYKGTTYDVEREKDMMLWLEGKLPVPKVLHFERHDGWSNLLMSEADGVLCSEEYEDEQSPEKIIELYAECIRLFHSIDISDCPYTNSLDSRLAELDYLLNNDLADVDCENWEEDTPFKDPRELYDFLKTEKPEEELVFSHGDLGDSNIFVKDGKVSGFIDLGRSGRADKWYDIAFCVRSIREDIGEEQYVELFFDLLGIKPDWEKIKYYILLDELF
Compound,MIC E. coli R477-100 [1],MIC E. coli ATCC 25922 [2],MIC E. coli AG100B [3],MIC E. coli AG100A [4],MIC B. subtilis ATCC 6633 [5],MIC MRSA ATCC 43300 [6],MIC ratio BL21/pETSACG1 to BL21 [7],MIC BL21/pETSACG1 [7],MIC BL21 [8],MIC ratio XL1 blue/pET9d to XL1 blue [9],MIC XL1 blue/pET9d [9],MIC ratio XL1 blue/pSF815 to XL1 blue [10],MIC XL1 blue/pSF815 [10],MIC XL1 blue [11],MIC against E. coli (pETSACG1) ([7]; molar expression of 0.2 μg/ml),Km [12],"Km [12, 13]","kcat [12, 13]"
"NCC1OC(OC2C(C(=O)NCc3cn(Cc4ccc(CN5CCN(c6cc7c(cc6F)c(=O)c(C(=O)O)cn7C6CC6)CC5)cc4)nn3)OC(OC3C(O)C(N)CC(N)C3OC3OC(CN)C(O)C(O)C3N)C2O)C(N)C(O)C1O (stereo not shown) [Compound 1p, N-((1-(4-((ciprofloxacin)methyl)benzyl)-1H-1,2,3-triazol-4-yl)-5″-methyl)neomycin carboxamide]",6 µg/mL,6 µg/mL,12 µg/mL,1.5 µg/mL,3 µg/mL,3 µg/mL,1,0.4 μg/ml,0.4 µg/mL,1,6 μg/ml,1,6 μg/ml,6 µg/mL,–,–,–,–
"NCC1OC(OC2C(C(=O)NCc3cn(Cc4cccc(CN5CCN(c6cc7c(cc6F)c(=O)c(C(=O)O)cn7C6CC6)CC5)c4)nn3)OC(OC3C(O)C(N)CC(N)C3OC3OC(CN)C(O)C(O)C3N)C2O)C(N)C(O)C1O (stereo not shown) [Compound 1o, N-((1-(3-((ciprofloxacin)methyl)benzyl)-1H-1,2,3-triazol-4-yl)-5″-methyl)neomycin carboxamide]",6 µg/mL,6 µg/mL,12 µg/mL,0.75 µg/mL,3 µg/mL,6 µg/mL,1,0.4 μg/ml,0.4 µg/mL,1,6 μg/ml,4,24 μg/ml,6 µg/mL,–,–,–,–
"NCC1OC(OC2C(C(=O)NCc3cn(CC(O)CN4CCN(c5cc6c(cc5F)c(=O)c(C(=O)O)cn6C5CC5)CC4)nn3)OC(OC3C(O)C(N)CC(N)C3OC3OC(CN)C(O)C(O)C3N)C2O)C(N)C(O)C1O (stereo not shown) [Compound 1m, N-((1-(2-hydroxy-3-(ciprofloxacin)propyl)-1H-1,2,3-triazol-4-yl)-5″-methyl)neomycin carboxamide]",6 µg/mL,3 µg/mL,12 µg/mL,0.75 µg/mL,3 µg/mL,12 µg/mL,1,0.2 μg/ml,0.2 µg/mL,2,12 μg/ml,8,48 μg/ml,6 µg/mL,5.5 μM,87 µM,86.8 ± 8.9 µM,2.5 ± 0.1 s⁻¹
